Data: article PMC4475657 (Iranian Journal of Basic Medical Sciences, 2015)

Target: human tau protein 1N/4R isoform (htau34) (Homo sapiens, UniProt P10636)
Assay: ThT fluorescence aggregation assay of purified tau
Assay type: biochemical

Chain of human tau protein 1N/4R isoform (htau34) (P10636 1-412 isoform P10636-7): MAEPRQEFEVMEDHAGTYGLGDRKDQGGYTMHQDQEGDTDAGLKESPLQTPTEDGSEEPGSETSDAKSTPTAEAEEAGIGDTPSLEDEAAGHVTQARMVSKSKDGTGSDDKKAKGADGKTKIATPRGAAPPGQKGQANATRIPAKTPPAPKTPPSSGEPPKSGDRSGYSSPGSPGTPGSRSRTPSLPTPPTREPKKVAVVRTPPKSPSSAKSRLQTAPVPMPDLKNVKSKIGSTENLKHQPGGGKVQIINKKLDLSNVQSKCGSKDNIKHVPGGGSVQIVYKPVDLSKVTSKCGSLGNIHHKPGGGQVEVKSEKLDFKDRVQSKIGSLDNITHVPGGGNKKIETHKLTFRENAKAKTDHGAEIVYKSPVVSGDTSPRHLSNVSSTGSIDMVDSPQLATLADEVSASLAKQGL

Compound: CC(/C=C/C=C(\C)C(=O)O[C@@H]1O[C@H](CO[C@@H]2O[C@H](CO)[C@@H](O)[C@H](O)[C@H]2O)[C@@H](O)[C@H](O)[C@H]1O)=C\C=C\C=C(C)\C=C\C=C(/C)C(=O)O[C@@H]1O[C@H](CO[C@@H]2O[C@H](CO)[C@@H](O)[C@H](O)[C@H]2O)[C@@H](O)[C@H](O)[C@H]1O [crocin]
- IC50: 102 µM
